According to patent US12145947B2, “Pyrimidine based modulators and uses thereof” (Quanta Therapeutics, Inc., priority 2022, dated 2024):

Columns and labels:
[1] = target: T1, GST-tagged KRAS-G12D (2-169) (Homo sapiens, UniProt P01116, G12D); experiment: Nucleotide exchange assay (NEA), SOS-mediated, HTRF, KRAS G12D; format: biochemical; settings: Table 4; IC50 extracted at 30 min
T1 construct: GST-tagged KRAS-G12D (2-169, Reaction Biology, MSC-11-539); purchased Reaction Biology MSC-11-539 (KRAS G12D); MSC-11-502 (SOS1cat)
T1 sequence (P01116 2-169 isoform P01116-2 G12D): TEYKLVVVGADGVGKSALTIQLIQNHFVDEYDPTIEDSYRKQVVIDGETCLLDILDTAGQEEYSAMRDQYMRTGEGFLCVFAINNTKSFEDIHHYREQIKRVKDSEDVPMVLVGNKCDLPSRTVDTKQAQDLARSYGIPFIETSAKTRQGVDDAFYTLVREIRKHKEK
Procedure, shortened: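 GST-KRAS-G12D (2-169, 5 nM final) with Tb-anti-GST donor was preincubated with compound 1 h at RT (pH 7.3 HEPES buffer, MgCl2, DTT), then SOScat (564-1049, 20 nM) and GTP-DY-647P1 (150 nM) were added. HTRF was read at RT; % inhibition vs DMSO/no-SOS blank, 4-parameter IC50 taken at 30 min.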

[2] = system: AGS cells (KRAS G12D), phospho-ERK; experiment: pERK In Cell Western (ICW) assay (Method B), AGS cells; format: cell-based; settings: Homo sapiens, Table 4, pERK, 3 hours, read-out: ICW-AGS
Method: pERK ICW is a high throughput screening assay to evaluate the cellular potency of mutant KRAS small molecule inhibitors. KRAS mutant cell lines AGS and GP2D (KRAS^G12D) were purchased from ATCC and maintained respectively in RPMI and DMEM medium supplemented with 10% fetal bovine serum and Penicillin/Streptomycin.
Cells grown in exponential phase were trypsinized, resuspended in fresh media, and viable cells were counted using a cell counter with Trypan Blue (BioRad TC20). Cells were seeded into 384-well plate (Greiner 781091) at density of 5,000 cells/well for AGS and 10,000 cells/well for GP2D and allowed to grow overnight in a 37° C. CO2 incubator. The next day, compounds were dispensed into wells with a ½ log, 10-point serial dilution and top concentration of […] using Tecan D300e dispenser and incubated for 3 hours in a 37° C. CO2 incubator. Cells were then fixed with paraformaldehyde (Electron Microscopy Sciences, 15710, 4% final concentration) for 30 min, permeabilized with wash buffer (1×PBS+0.1% Triton X-100) for 30 min and blocked with Odyssey blocking buffer (Li—COR 927-70001) for 1 hour, all at room temperature (RT). Phospho-ERK antibody (CST 4370L) was diluted 1:500 in Odyssey blocking+0.2% Tween 20 and incubated with cells overnight at 4° C. The next day, plates were washed 5× with wash buffer, incubated with IRDye 800 CW, Goat anti-Rabbit secondary antibody (Li—COR 926-32211, 1:500) and DRAQ5 (CST 4084L, 1:5,000) diluted in Odyssey blocking+0.2% Tween 20 for 1 hour, washed 5×, and imaged on an Odyssey CLx imaging system.
For data analysis, signal intensities from 800 (phosphor-ERK) and 700 (DRAQ5) channels were extracted, and phospho-ERK signals were normalized to DRAQ5 signals for each well and percent of DMSO control values were computed. Data were then imported into Graphpad Prism to compute half-maximal inhibitory concentrations (IC50) using a 4-parameter variable slope model. Z-factor for each plate was computed from signals derived from wells treated with either DMSO or […] of Trametinib. AGS pERK ICW (Method B) IC50 (uM) values of selected compounds are depicted in Table 2 with compounds having a value 0.001 uM to 0.01 uM as ++++; >0.01 uM to 0.1 uM as +++; >0.1 uM to 1 uM as ++; 1 uM to 10 uM as + and >10 uM as NA.

In the case of `N#Cc1c(N)sc2c1C1(CC2)CN(c2nc(OCC3(CN4CCOCC4)CC3)nc(N3C[C@H]4CC[C@@H](C3)N4)c2F)C1` [Compound 22, 2-amino-1′-[6-(3,8-diazabicyclo[3.2.1]octan-3-yl)-5-fluoro-2-[[1-(morpholinomethyl)cyclopropyl]methoxy]pyrimidin-4-yl]spiro[5,6-dihydrocyclopenta[b]thiophene-4,3′-azetidine]-3-carbonitrile], the IC50 [1] is reported as < 10 nM and the IC50 [2] is reported as 10 to 100 nM.
In the case of `N#Cc1c(N2C[C@H]3CC[C@@H](C2)N3)nc(OCC2(CN3CCOCC3)CC2)nc1N1CC2(CCc3sc(N)nc32)C1` [Compound 23, 4-(2-aminospiro[5,6-dihydrocyclopenta[d]thiazole-4,3′-azetidine]-1′-yl)-2-[[1-(morpholinomethyl)cyclopropyl]methoxy]-6-[(1R,5S)-3,8-diazabicyclo[3.2.1]octan-3-yl]pyrimidine-5-carbonitrile], the IC50 [1] is reported as < 10 nM and the IC50 [2] is reported as 100 to 1000 nM.
`N#Cc1cc2n(n1)CCCN(c1nc(OC[C@@]34CCCN3C[C@H](F)C4)nc(N3CC4(CCc5sc(N)c(C#N)c54)C3)c1C#N)C2` [Compound 24, 2-amino-1′-[5-cyano-6-(2-cyano-4,6,7,8-tetrahydropyrazolo[1,5-a][1,4]diazepin-5-yl)-2-[[(2R,8S)-2-fluoro-1,2,3,5,6,7-hexahydropyrrolizin-8-yl]methoxy]pyrimidin-4-yl]spiro[5,6-dihydrocyclopenta[b]thiophene-4,3′-azetidine]-3-carbonitrile] was tested, and the IC50 [1] was 10 to 100 nM and the IC50 [2] was 100 to 1000 nM.
With `N#Cc1c(N2C[C@H]3CC[C@@H](C2)N3)nc(OC[C@@]23CCCN2C[C@H](F)C3)nc1N1CC2(CCc3sc(N)c(C#N)c32)C1` [Compound 25, 2-amino-1′-[5-cyano-6-(3,8-diazabicyclo[3.2.1]octan-3-yl)-2-[[(2R,8S)-2-fluoro-1,2,3,5,6,7-hexahydropyrrolizin-8-yl]methoxy]pyrimidin-4-yl]spiro[5,6-dihydrocyclopenta[b]thiophene-4,3′-azetidine]-3-carbonitrile] the IC50 [1] was < 10 nM and the IC50 [2] was 10 to 100 nM.
For `CN(C)CC(F)(F)COc1nc(N2C[C@H]3CC[C@@H](C2)N3)c(C#N)c(N2CC3(CCc4sc(N)c(C#N)c43)C2)n1` [Compound 26, 2-amino-1′-[5-cyano-6-(3,8-diazabicyclo[3.2.1]octan-3-yl)-2-[3-(dimethylamino)-2,2-difluoro-propoxy]pyrimidin-4-yl]spiro[5,6-dihydrocyclopenta[b]thiophene-4,3′-azetidine]-3-carbonitrile], the IC50 [1] was < 10 nM and the IC50 [2] was 1000 to 10000 nM.
In the case of `Cn1c(-c2cc3n(n2)CCCN(c2nc(OC[C@@]45CCCN4C[C@H](F)C5)nc(N4CC5(CCc6sc(N)c(C#N)c65)C4)c2C#N)C3)nc2ccccc21` [Compound 29, 2-amino-1′-[5-cyano-6-[2-(1-methylbenzimidazol-2-yl)-4,6,7,8-tetrahydropyrazolo[1,5-a][1,4]diazepin-5-yl]-2-[[(2R,8S)-2-fluoro-1,2,3,5,6,7-hexahydropyrrolizin-8-yl]methoxy]pyrimidin-4-yl]spiro[5,6-dihydrocyclopenta[b]thiophene-4,3′-azetidine]-3-carbonitrile], the IC50 [1] is reported as 10 to 100 nM and the IC50 [2] is reported as 1000 to 10000 nM.
In the case of `Cn1c(-c2nn3c(c2Cl)CN(c2nc(OC[C@@]45CCCN4C[C@H](F)C5)nc(N4CC5(CCc6sc(N)c(C#N)c65)C4)c2C#N)CCC3)nc2ccccc21` [Compound 30], the IC50 [1] is reported as < 10 nM and the IC50 [2] is reported as 100 to 1000 nM.
For `Cn1c(-c2nn3c(c2Cl)CN(c2nc(OC[C@@]45CCCN4C[C@H](F)C5)nc(N4CC5(CCc6sc(N)c(C#N)c65)C4)c2C#N)CCC3)nc2c(F)cccc21` [Compound 32, 2-amino-1′-[6-[3-chloro-2-(4-fluoro-1-methyl-benzimidazol-2-yl)-4,6,7,8-tetrahydropyrazolo[1,5-a][1,4]diazepin-5-yl]-5-cyano-2-[[(2R,8S)-2-fluoro-1,2,3,5,6,7-hexahydropyrrolizin-8-yl]methoxy]pyrimidin-4-yl]spiro[5,6-dihydrocyclopenta[b]thiophene-4,3′-azetidine]-3-carbonitrile], the IC50 [1] was < 10 nM and the IC50 [2] was 100 to 1000 nM.
`N#Cc1c(N2CCCC(C#N)CC2)nc(OC[C@@]23CCCN2C[C@H](F)C3)nc1N1CC2(CCc3sc(N)c(C#N)c32)C1` (stereo partly drawn) [Compound 33, 2-amino-1′-[5-cyano-6-(4-cyanoazepan-1-yl)-2-[[(2R,8S)-2-fluoro-1,2,3,5,6,7-hexahydropyrrolizin-8-yl]methoxy]pyrimidin-4-yl]spiro[5,6-dihydrocyclopenta[b]thiophene-4,3′-azetidine]-3-carbonitrile] was tested, and the IC50 [1] was 10 to 100 nM and the IC50 [2] was 1000 to 10000 nM.
In the case of `N#Cc1c(N2C[C@H]3CC[C@@H](C2)N3)nc(OCC2(CN3CCC(F)(F)CC3)CC2)nc1N1CC2(CCc3sc(N)c(C#N)c32)C1` [Compound 34, 2-amino-1′-[5-cyano-6-(3,8-diazabicyclo[3.2.1]octan-3-yl)-2-[[1-[(4,4-difluoro-1-piperidyl)methyl]cyclopropyl]methoxy]pyrimidin-4-yl]spiro[5,6-dihydrocyclopenta[b]thiophene-4,3′-azetidine]-3-carbonitrile], the IC50 [1] is reported as < 10 nM and the IC50 [2] is reported as 10 to 100 nM.
With `N#Cc1c(N2C[C@H]3CC[C@@H](C2)N3)nc(OCC2(CN3CCOCC3)CC2)nc1N1CC2(CCCc3sc(N)c(C#N)c32)C1` [Compound 41, 2-amino-1′-[5-cyano-2-[[1-(morpholinomethyl)cyclopropyl]methoxy]-6-[(1R,5S)-3,8-diazabicyclo[3.2.1]octan-3-yl]pyrimidin-4-yl]spiro[6,7-dihydro-5H-benzothiophene-4,3′-azetidine]-3-carbonitrile] the IC50 [1] was < 10 nM and the IC50 [2] was 10 to 100 nM.
In the case of `N#Cc1c(N2C[C@H]3COC[C@@H](C2)N3)nc(OCC2(CN3CCOCC3)CC2)nc1N1CC2(CCc3sc(N)c(C#N)c32)C1` [Compound 42, 2-amino-1′-[5-cyano-2-[[1-(morpholinomethyl)cyclopropyl]methoxy]-6-(3-oxa-7,9-diazabicyclo[3.3.1]nonan-7-yl)pyrimidin-4-yl]spiro[5,6-dihydrocyclopenta[b]thiophene-4,3′-azetidine]-3-carbonitrile], the IC50 [1] is reported as < 10 nM and the IC50 [2] is reported as 100 to 1000 nM.
`CC1CC2(CN(c3nc(OCC4(CN5CCOCC5)CC4)nc(N4C[C@H]5CC[C@@H](C4)N5)c3C#N)C2)c2c1sc(N)c2C#N` (stereo partly drawn) [Compound 45, 2-amino-1-[5-cyano-2-[[1-(morpholinomethyl)cyclopropyl]methoxy]-6-[(1R,5S)-3,8-diazabicyclo[3.2.1]octan-3-yl]pyrimidin-4-yl]-6-methyl-spiro[5,6-dihydrocyclopenta[b]thiophene-4,3′-azetidine]-3-carbonitrile] was tested, and the IC50 [1] was < 10 nM and the IC50 [2] was 10 to 100 nM.
With `Cc1nc(-c2nn3c(c2Cl)CN(c2nc(OC[C@@]45CCCN4C[C@H](F)C5)nc(N4CC5(CCc6sc(N)c(C#N)c65)C4)c2C#N)CCC3)no1` [Compound 46, 2-amino-1′-[6-[3-chloro-2-(5-methyl-1,2,4-oxadiazol-3-yl)-4,6,7,8-tetrahydropyrazolo[1,5-a][1,4]diazepin-5-yl]-5-cyano-2-[[(2R,8S)-2-fluoro-1,2,3,5,6,7-hexahydropyrrolizin-8-yl]methoxy]pyrimidin-4-yl]spiro[5,6-dihydrocyclopenta[b]thiophene-4,3′-azetidine]-3-carbonitrile] the IC50 [1] was < 10 nM and the IC50 [2] was 100 to 1000 nM.
`CN(C)C1(COc2nc(N3C[C@H]4CC[C@@H](C3)N4)c(C#N)c(N3CC4(CCc5sc(N)c(C#N)c54)C3)n2)CC1` [Compound 47, 2-amino-1′-[5-cyano-6-[(1R,5S)-3,8-diazabicyclo[3.2.1]octan-3-yl]-2-[[1-(dimethylamino)cyclopropyl]methoxy]pyrimidin-4-yl]spiro[5,6-dihydrocyclopenta[b]thiophene-4,3′-azetidine]-3-carbonitrile] was tested, and the IC50 [1] was < 10 nM and the IC50 [2] was 100 to 1000 nM.
